Biological target: T1, CLas GMPS (guanosine 5′-monophosphate synthetase)
T1 construct: gene guaA
Format: biochemical, Candidatus Liberibacter asiaticus

Structure (SMILES)	Ki [µM]
Nc1nc(=O)c2nc(CNc3ccc(C(=O)N[C@@H](CCC(=O)O)C(=O)O)cc3)cnc2[nH]1 [Compound5481, folic acid]	52
CCN(CCCOc1ccc2c(Nc3cc(CC(=O)Nc4cccc(F)c4)n[nH]3)ncnc2c1)CCOP(=O)(O)O [Compound1334, AZD1152]	4.05

Reference: article PMC8301025 (Biology, 2021)
